Values joined by “and” are separate entries in the source; they are usually repeats but may differ in a detail not shown here. Equal values may be shown once.
Experiments:
Type in all cases: in vivo
Common Chickweed [1] = test: pre-emergence herbicide test; settings: pre-emergence, 0.25 lb/A; read-out: % plant inhibition
Description: (§1) Topsoil was placed in an aluminum pan and compacted to a depth of 1.3 to 1.6 cm from the top of the pan. On the top of the soil was placed a predetermined number of seeds of each of several monocotyledonous and dicotyledonous annual plant species and/or vegetative propagules of various perennial plant species. The pan was then level filled with a cover layer of topsoil to which was added a known amount of active ingredient either prior to or after application of the cover layer. The active ingredient was dissolved or suspended in an organic solvent, e.g., acetone, or water as carrier for application to the cover layer. The pans were moved to a greenhouse bench where they were thereafter watered from below as needed to give adequate moisture for germination and growth. In some cases, an initial overhead irrigation of 1/4 inch of water was applied immediately after treatment.
(§2) Approximately 14 days after seeding and treating, the pans were observed and the results (% inhibition) were recorded.
(§3) The tables below summarize the results of the pre-emergence herbicidal activity tests of compounds of this invention tested with warm season plants (Tables 2a-2d) and cool season plants (Tables 3a and 3b). The herbicidal rating shown in these tables is the percent inhibition of each plant species. The plant species usually regarded as weeds are identified in the tables by single letter headings and crop species identified by two letter headings both headings being above the columns in accordance with the following legend: […]

Birdseye Speedwell [2] = test: pre-emergence herbicide test; settings: pre-emergence, 0.25 lb/A; read-out: % plant inhibition
Description: as §1, §2, §3

Blackgrass [3] = test: pre-emergence herbicide test; settings: Alopecurus myosuroides, pre-emergence, 0.25 lb/A; read-out: % plant inhibition
Description: as §1, §2, §3

Morning Glory [4] = test: pre-emergence herbicide test; settings: 0.25 lb/A; for inhibition at 280.212 g/ha: Ipomoea, pre-emergence, read-out: % plant inhibition
Description: as §1, §2, §3

Rape [5] = test: pre-emergence herbicide test; settings: pre-emergence, 0.25 lb/A; read-out: % plant inhibition
Description: as §1, §2, §3

Wheat [6] = test: pre-emergence herbicide test; settings: Triticum aestivum, pre-emergence, 0.25 lb/A; read-out: % plant inhibition
Description: as §1, §2, §3

Downy Brome [7] = test: pre-emergence herbicide test; settings: Bromus tectorum, pre-emergence, 0.25 lb/A; read-out: % plant inhibition
Description: as §1, §2, §3

Soybean [8] = test: pre-emergence herbicide test; settings: 0.25 lb/A
Description: as §1, §2, §3

Giant Foxtail [9] = test: pre-emergence herbicide test; settings: 0.25 lb/A; for inhibition at 280.212 g/ha: Setaria faberi, pre-emergence, read-out: % plant inhibition
Description: as §1, §2, §3

Velvetleaf [10] = test: pre-emergence herbicide test; settings: Abutilon theophrasti, pre-emergence, 0.25 lb/A; read-out: % plant inhibition
Description: as §1, §2, §3

Cocklebur [11] = test: pre-emergence herbicide test; settings: Xanthium strumarium, pre-emergence, 0.25 lb/A; read-out: % plant inhibition
Description: as §1, §2, §3

Green Foxtail [12] = test: pre-emergence herbicide test; settings: Setaria viridis, pre-emergence; 0.25 lb/A; read-out: % plant inhibition
Description: as §1, §2, §3

Wild Oats [13] = test: pre-emergence herbicide test; settings: Avena fatua, pre-emergence, 0.25 lb/A; read-out: % plant inhibition
Description: as §1, §2, §3

Corn [14] = test: pre-emergence herbicide test; settings: 0.25 lb/A; for inhibition at 280.212 g/ha: Zea mays, pre-emergence, read-out: % plant inhibition
Description: as §1, §2, §3

Bedstraw Catchweed [15] = test: pre-emergence herbicide test; settings: Galium aparine, pre-emergence, 0.25 lb/A; read-out: % plant inhibition
Description: as §1, §2, §3

Common Chickweed [16] = test: post-emergence herbicide test; settings: post-emergence, 0.25 lb/A; read-out: % plant inhibition
From the text: (§4) Topsoil was placed in aluminum pans having holes in the bottom and compacted to a depth of 1.3 to 1.6 cm from the top of the pan. A predetermined number of seeds of each of several dicotyledonous and monocotyledonous annual plant species and/or vegetative propagules for the perennial plant species were placed on the soil and pressed into the soil surface. The seeds and/or vegetative propagules were covered with soil and leveled. The pans were then placed on a bench in the greenhouse and watered either from overheard irrigation or by subirrigation as needed. After the plants reach the desired age (two to three weeks), each pan, is removed individually to a spraying chamber and sprayed by means of an atomizer, operating at a spray pressure of 170.3 kPa […] at the application rates noted. In the spray solution was an amount of an emulsifying agent mixture to give a spray solution or suspension which contains about 0.4% by volume of the emulsifier. The spray solution or suspension contained a sufficient amount of the candidate chemical in order to give application rates of the active ingredient corresponding to those shown in Tables 4 and 5, while applying a total amount of solution or suspension equivalent to 1870 L/Ha (200 gallons/acre). […] The post-emergent herbicidal activity shown in these tables is the percent inhibition of each plant species. Testing with warm season and cool season plants is shown in tables 4a-4d and […], respectively.

Birdseye Speedwell [17] = test: post-emergence herbicide test; settings: post-emergence, 0.25 lb/A; read-out: % plant inhibition
From the text: as §4

Blackgrass [18] = test: post-emergence herbicide test; settings: Alopecurus myosuroides, post-emergence, 0.25 lb/A; read-out: % plant inhibition
From the text: as §4

Morning Glory [19] = test: post-emergence herbicide test; settings: Ipomoea, post-emergence, 0.25 lb/A; read-out: % plant inhibition
From the text: as §4

Rape [20] = test: post-emergence herbicide test; settings: post-emergence, 0.25 lb/A; read-out: % plant inhibition
From the text: as §4

Wheat [21] = test: post-emergence herbicide test; settings: Triticum aestivum, post-emergence, 0.25 lb/A; read-out: % plant inhibition
From the text: as §4

Downy Brome [22] = test: post-emergence herbicide test; settings: Bromus tectorum, post-emergence, 0.25 lb/A; read-out: % plant inhibition
From the text: as §4

Soybean [23] = test: post-emergence herbicide test; settings: Glycine max, post-emergence, 0.25 lb/A; read-out: % plant inhibition
From the text: as §4

Giant Foxtail [24] = test: post-emergence herbicide test; settings: Setaria faberi, post-emergence, 0.25 lb/A; read-out: % plant inhibition
From the text: as §4

Velvetleaf [25] = test: post-emergence herbicide test; settings: Abutilon theophrasti, post-emergence, 0.25 lb/A; read-out: % plant inhibition
From the text: as §4

Cocklebur [26] = test: post-emergence herbicide test; settings: Xanthium strumarium, post-emergence, 0.25 lb/A; read-out: % plant inhibition
From the text: as §4

Green Foxtail [27] = test: post-emergence herbicide test; settings: Setaria viridis, post-emergence, 0.25 lb/A; read-out: % plant inhibition
From the text: as §4

Wild Oats [28] = test: post-emergence herbicide test; settings: Avena fatua, post-emergence, 0.25 lb/A; read-out: % plant inhibition
From the text: as §4

Barnyardgrass [29] = test: post-emergence herbicide test; settings: Echinochloa crus-galli, post-emergence, 0.25 lb/A; read-out: % plant inhibition
From the text: as §4

Seedling Johnsongrass = test: post-emergence herbicide test; settings: Sorghum halepense, post-emergence, 0.25 lb/A; read-out: % plant inhibition
From the text: as §4

Corn [30] = test: post-emergence herbicide test; settings: Zea mays, post-emergence, 0.25 lb/A; read-out: % plant inhibition
From the text: as §4

Bedstraw Catchweed [31] = test: post-emergence herbicide test; settings: Galium aparine, post-emergence, 0.25 lb/A; read-out: % plant inhibition
From the text: as §4

Barnyardgrass [32] = test: pre-emergence herbicide test; settings: Echinochloa crus-galli, pre-emergence, 0.25 lb/A; read-out: % plant inhibition
Description: as §1, §2, §3

CCOC(=O)C(C)OC(=O)c1cc(-c2nn(C)c(C(F)(F)F)c2C)c(F)cc1Cl (stereo not shown) [Compound 20]
inhibition at 280.212 g/ha (Common Chickweed [1]): 100% | inhibition at 280.212 g/ha (Birdseye Speedwell [2]): 100% | inhibition at 280.212 g/ha (Blackgrass [3]): 70% | % plant inhibition (Morning Glory [4]): 70% | inhibition at 280.212 g/ha (Morning Glory [4]): 85% | inhibition at 280.212 g/ha (Rape [5]): 95% | inhibition at 280.212 g/ha (Wheat [6]): 0% | inhibition at 280.212 g/ha (Downy Brome [7]): 65% | inhibition at 280.212 g/ha (Soybean [8]; Glycine max, pre-emergence, read-out: % plant inhibition): 5% | % plant inhibition (Giant Foxtail [9]): 80% | inhibition at 280.212 g/ha (Giant Foxtail [9]): 98% | inhibition at 280.212 g/ha (Velvetleaf [10]): 95% | inhibition at 280.212 g/ha (Cocklebur [11]): 55% | inhibition at 280.212 g/ha (Green Foxtail [12]): 100% | inhibition at 280.212 g/ha (Wild Oats [13]): 25% | % plant inhibition (Corn [14]): 10% | inhibition at 280.212 g/ha (Corn [14]): 15% | inhibition at 280.212 g/ha (Bedstraw Catchweed [15]): 100% | inhibition at 280.212 g/ha (Common Chickweed [16]): 98% | inhibition at 280.212 g/ha (Birdseye Speedwell [17]): 100% | inhibition at 280.212 g/ha (Blackgrass [18]): 35% | inhibition at 280.212 g/ha (Morning Glory [19]): 98% | inhibition at 280.212 g/ha (Rape [20]): 25% | inhibition at 280.212 g/ha (Wheat [21]): 22% | inhibition at 280.212 g/ha (Downy Brome [22]): 40% | inhibition at 280.212 g/ha (Soybean [23]): 35% | inhibition at 280.212 g/ha (Giant Foxtail [24]): 75% | inhibition at 280.212 g/ha (Velvetleaf [25]): 100% | inhibition at 280.212 g/ha (Cocklebur [26]): 90% | inhibition at 280.212 g/ha (Green Foxtail [27]): 25% | inhibition at 280.212 g/ha (Wild Oats [28]): 45% | inhibition at 280.212 g/ha (Barnyardgrass [29]): 85% | inhibition at 280.212 g/ha (Seedling Johnsongrass): 80% | inhibition at 280.212 g/ha (Corn [30]): 8% | inhibition at 280.212 g/ha (Bedstraw Catchweed [31]): 95%

Cc1c(-c2cc(C(=O)O)c(Cl)cc2F)nn(C)c1C(F)(F)F [Compound 2, 2-Chloro-5-[1,4-dimethyl-5-(trifluoromethyl)-1H-pyrazol-3-yl]-4-fluorobenzoic acid]
inhibition at 280.212 g/ha (Common Chickweed [1]): 60% | inhibition at 280.212 g/ha (Birdseye Speedwell [2]): 55% | inhibition at 280.212 g/ha (Blackgrass [3]): 15% | % plant inhibition (Morning Glory [4]): 30% | inhibition at 280.212 g/ha (Morning Glory [4]): 35% | inhibition at 280.212 g/ha (Rape [5]): 20% | inhibition at 280.212 g/ha (Wheat [6]): 7% | inhibition at 280.212 g/ha (Downy Brome [7]): 25% | % plant inhibition (Soybean [8]): 5% and 0% | inhibition at 280.212 g/ha (Giant Foxtail [9]): 0% | inhibition at 280.212 g/ha (Green Foxtail [12]): 25% | inhibition at 280.212 g/ha (Wild Oats [13]): 15% | inhibition at 280.212 g/ha (Barnyardgrass [32]): 0% | inhibition at 280.212 g/ha (Corn [14]): 0% | inhibition at 280.212 g/ha (Bedstraw Catchweed [15]): 50% | inhibition at 280.212 g/ha (Common Chickweed [16]): 70% | inhibition at 280.212 g/ha (Birdseye Speedwell [17]): 80% | inhibition at 280.212 g/ha (Blackgrass [18]): 10% | inhibition at 280.212 g/ha (Morning Glory [19]): 45% | inhibition at 280.212 g/ha (Rape [20]): 0% | inhibition at 280.212 g/ha (Wheat [21]): 0% | inhibition at 280.212 g/ha (Downy Brome [22]): 0% | inhibition at 280.212 g/ha (Soybean [23]): 20% | inhibition at 280.212 g/ha (Giant Foxtail [24]): 0% | inhibition at 280.212 g/ha (Velvetleaf [25]): 85% | inhibition at 280.212 g/ha (Cocklebur [26]): 70% | inhibition at 280.212 g/ha (Green Foxtail [27]): 15% | inhibition at 280.212 g/ha (Wild Oats [28]): 0% | inhibition at 280.212 g/ha (Barnyardgrass [29]): 15% | inhibition at 280.212 g/ha (Seedling Johnsongrass): 20% | inhibition at 280.212 g/ha (Corn [30]): 3% | inhibition at 280.212 g/ha (Bedstraw Catchweed [31]): 50%

Reference: patent US5672715A, “Herbicidal substituted 3-aryl-pyrazoles” (Monsanto Company, priority 1995, dated 1997)
